This is an account of results in ChEMBL document CHEMBL2046425, “Neamphamide B, new cyclic depsipeptide, as an anti-dormant mycobacterial substance from a Japanese marine sponge of Neamphius sp” (2012).

Each structure is given as a SMILES string. ≈ marks a conversion by molar mass, not a printed value.

The test system of assay [1] is Mycolicibacterium smegmatis. Nature of the assay: Antimicrobial activity against Mycobacterium smegmatis under dormancy-inducing hypoxic condition for 96 hrs by MTT assay. The class given is functional. (Tetrazolium dyes change colour on reduction, which living cells bring about.)
Assay [2] deals with Mycolicibacterium smegmatis. Nature of the assay: Antimicrobial activity against Mycobacterium smegmatis under aerobic condition for 36 hrs by MTT assay. The class given is functional.

What is called MIC is the smallest concentration in the dilution series that meets the test's criterion for growth inhibition. For the molecule `COC(c1ccc(O)cc1)C1NC(=O)[C@H](CCC(N)=O)N(C)C(=O)[C@H](CC(C)C)NC(=O)[C@@H](CCCNC(=N)N)NC(=O)[C@@H]([C@@H](C)O)NC(=O)[C@H](NC(=O)C(NC(=O)[C@H](O)[C@H](O)[C@H](CCCNC(=N)N)NC(=O)[C@@H](CC(N)=O)NC(=O)C(C)C(O)C(C)CC(C)C)C(C)C(C)C(N)=O)[C@@H](C)OC(=O)[C@@H]2CCCCN2C1=O` (some centres not stated) [NEAMPHAMIDE B], the minimum inhibitory concentration (MIC) in assay [1] and in assay [2] was 1.56 µg/mL (≈ 0.991 µM) throughout.
